According to patent US10793538B2, “Cycloalkenyl hydroxamic acid derivatives and their use as histone deacetylase inhibitors” (The Broad Institute, Inc., priority 2012, dated 2020):

Assays:
Assay in all cases: HDAC isoform inhibition, microfluidic lab-on-a-chip (Caliper) assay
HDAC1 = molecular target: T1, HDAC1 (Homo sapiens, UniProt Q13547); type: biochemical; conditions: HDAC isoform 1; 2 μM FAM-labeled acetylated peptide substrate, 60 min, room temperature
T1 construct: purchased BPS Bioscience
T1 sequence (Q13547 whole entry, canonical isoform): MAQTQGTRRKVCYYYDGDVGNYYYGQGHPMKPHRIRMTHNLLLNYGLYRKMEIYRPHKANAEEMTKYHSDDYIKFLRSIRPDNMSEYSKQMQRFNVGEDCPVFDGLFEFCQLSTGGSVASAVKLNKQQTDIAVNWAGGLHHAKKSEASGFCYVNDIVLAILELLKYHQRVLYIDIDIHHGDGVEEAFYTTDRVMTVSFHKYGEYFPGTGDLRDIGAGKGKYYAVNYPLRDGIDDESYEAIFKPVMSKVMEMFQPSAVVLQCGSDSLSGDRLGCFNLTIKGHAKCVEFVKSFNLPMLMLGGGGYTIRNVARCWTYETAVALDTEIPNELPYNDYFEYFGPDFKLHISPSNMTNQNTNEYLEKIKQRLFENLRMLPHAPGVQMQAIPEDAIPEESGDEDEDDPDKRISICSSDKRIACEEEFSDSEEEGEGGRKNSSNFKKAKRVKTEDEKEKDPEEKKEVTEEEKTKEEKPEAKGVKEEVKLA

HDAC7 = molecular target: T2, HDAC7 (Homo sapiens, UniProt Q8WUI4); type: biochemical; conditions: HDAC isoform 7; 2 μM FAM-labeled acetylated peptide substrate, 60 min, room temperature
T2 construct: purchased BPS Bioscience
T2 sequence (Q8WUI4 1-952): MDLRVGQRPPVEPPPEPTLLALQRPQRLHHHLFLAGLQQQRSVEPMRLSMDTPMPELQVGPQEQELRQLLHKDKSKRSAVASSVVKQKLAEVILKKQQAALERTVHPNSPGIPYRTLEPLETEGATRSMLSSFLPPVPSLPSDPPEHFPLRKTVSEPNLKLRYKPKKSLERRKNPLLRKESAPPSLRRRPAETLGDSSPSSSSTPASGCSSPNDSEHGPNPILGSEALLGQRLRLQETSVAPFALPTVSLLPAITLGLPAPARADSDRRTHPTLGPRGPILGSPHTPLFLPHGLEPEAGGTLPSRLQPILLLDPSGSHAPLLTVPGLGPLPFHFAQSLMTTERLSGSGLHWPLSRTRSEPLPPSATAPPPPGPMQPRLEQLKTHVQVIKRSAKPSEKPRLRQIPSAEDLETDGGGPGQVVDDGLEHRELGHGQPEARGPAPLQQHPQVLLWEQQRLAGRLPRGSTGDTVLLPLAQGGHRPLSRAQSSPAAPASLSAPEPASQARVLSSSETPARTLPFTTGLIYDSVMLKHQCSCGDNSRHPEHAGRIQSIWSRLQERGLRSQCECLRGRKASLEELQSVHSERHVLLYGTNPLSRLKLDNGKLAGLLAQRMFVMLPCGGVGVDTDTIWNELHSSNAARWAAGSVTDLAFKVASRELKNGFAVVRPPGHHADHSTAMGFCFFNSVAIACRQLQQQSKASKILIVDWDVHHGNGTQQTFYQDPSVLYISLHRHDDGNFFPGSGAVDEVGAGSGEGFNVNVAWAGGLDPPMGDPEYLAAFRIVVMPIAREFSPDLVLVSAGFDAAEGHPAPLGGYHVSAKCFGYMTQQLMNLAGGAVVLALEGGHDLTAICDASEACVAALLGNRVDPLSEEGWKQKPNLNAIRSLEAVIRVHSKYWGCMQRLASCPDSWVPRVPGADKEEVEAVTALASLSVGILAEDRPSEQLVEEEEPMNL

HDAC4 = HDAC4 (Homo sapiens, UniProt P56524)
Chain of HDAC4 (P56524 whole entry, canonical isoform): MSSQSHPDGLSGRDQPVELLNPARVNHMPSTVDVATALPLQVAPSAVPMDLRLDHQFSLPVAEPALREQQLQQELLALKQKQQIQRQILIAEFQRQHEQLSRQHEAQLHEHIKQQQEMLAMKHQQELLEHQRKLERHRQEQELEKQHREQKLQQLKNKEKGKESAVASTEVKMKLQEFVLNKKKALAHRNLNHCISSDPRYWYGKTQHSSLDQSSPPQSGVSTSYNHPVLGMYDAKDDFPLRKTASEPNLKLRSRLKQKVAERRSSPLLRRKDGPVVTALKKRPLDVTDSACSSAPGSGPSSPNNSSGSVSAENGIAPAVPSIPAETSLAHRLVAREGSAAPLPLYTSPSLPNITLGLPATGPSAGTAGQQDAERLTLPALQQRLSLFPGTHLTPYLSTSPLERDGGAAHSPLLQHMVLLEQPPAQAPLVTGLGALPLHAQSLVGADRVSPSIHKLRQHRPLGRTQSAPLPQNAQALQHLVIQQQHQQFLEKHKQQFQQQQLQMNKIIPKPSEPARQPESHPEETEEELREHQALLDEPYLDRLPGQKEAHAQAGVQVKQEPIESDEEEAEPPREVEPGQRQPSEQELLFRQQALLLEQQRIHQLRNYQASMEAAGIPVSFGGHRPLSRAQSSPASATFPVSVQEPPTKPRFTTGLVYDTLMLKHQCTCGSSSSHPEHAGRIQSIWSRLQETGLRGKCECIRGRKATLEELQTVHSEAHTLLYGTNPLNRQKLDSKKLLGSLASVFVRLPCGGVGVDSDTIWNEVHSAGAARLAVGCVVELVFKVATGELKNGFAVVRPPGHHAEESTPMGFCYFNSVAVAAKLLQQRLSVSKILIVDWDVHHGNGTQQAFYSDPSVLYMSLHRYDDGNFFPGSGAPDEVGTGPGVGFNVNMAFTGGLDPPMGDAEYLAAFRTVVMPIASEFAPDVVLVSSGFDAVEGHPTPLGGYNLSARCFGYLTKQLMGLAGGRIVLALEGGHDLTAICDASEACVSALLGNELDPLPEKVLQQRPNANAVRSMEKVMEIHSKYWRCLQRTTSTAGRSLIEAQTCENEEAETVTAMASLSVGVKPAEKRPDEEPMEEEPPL
Method: The following microfluidic lab-on-a-chip assay as described herein was used to assay the compounds of the invention.
All HDACs were purchased from BPS Bioscience. All other reagents were purchased from Sigma. Caliper EZ reader II system was used to collect all the data.
In short, purified HDACs were incubated with 2 μM carboxyfluorescein (FAM)-labeled acetylated peptide substrate and test compound for 60 min at room temperature, in HDAC assay buffer that contained 50 mM HEPES (pH 7.4), 100 mM KCl, 0.01% BSA and 0.001% Tween-20. […] Substrate and product were separated electrophoretically and fluorescence intensity in the substrate and product peaks was determined and analyzed by Labchip EZ Reader. The reactions were performed in duplicate for each sample. IC50 values were automatically calculated by Origion8 using 4 Parameter Logistic Model. The percent inhibition was plotted against the compound concentration, and the IC50 value was determined from the logistic dose-response curve fitting by Origin 8.0 software.

HDAC6 = molecular target: T3, HDAC6 (Homo sapiens, UniProt Q9UBN7); type: biochemical; conditions: HDAC isoform 6; 2 μM FAM-labeled acetylated peptide substrate, 60 min, room temperature
T3 construct: purchased BPS Bioscience
T3 sequence (Q9UBN7 1-1215): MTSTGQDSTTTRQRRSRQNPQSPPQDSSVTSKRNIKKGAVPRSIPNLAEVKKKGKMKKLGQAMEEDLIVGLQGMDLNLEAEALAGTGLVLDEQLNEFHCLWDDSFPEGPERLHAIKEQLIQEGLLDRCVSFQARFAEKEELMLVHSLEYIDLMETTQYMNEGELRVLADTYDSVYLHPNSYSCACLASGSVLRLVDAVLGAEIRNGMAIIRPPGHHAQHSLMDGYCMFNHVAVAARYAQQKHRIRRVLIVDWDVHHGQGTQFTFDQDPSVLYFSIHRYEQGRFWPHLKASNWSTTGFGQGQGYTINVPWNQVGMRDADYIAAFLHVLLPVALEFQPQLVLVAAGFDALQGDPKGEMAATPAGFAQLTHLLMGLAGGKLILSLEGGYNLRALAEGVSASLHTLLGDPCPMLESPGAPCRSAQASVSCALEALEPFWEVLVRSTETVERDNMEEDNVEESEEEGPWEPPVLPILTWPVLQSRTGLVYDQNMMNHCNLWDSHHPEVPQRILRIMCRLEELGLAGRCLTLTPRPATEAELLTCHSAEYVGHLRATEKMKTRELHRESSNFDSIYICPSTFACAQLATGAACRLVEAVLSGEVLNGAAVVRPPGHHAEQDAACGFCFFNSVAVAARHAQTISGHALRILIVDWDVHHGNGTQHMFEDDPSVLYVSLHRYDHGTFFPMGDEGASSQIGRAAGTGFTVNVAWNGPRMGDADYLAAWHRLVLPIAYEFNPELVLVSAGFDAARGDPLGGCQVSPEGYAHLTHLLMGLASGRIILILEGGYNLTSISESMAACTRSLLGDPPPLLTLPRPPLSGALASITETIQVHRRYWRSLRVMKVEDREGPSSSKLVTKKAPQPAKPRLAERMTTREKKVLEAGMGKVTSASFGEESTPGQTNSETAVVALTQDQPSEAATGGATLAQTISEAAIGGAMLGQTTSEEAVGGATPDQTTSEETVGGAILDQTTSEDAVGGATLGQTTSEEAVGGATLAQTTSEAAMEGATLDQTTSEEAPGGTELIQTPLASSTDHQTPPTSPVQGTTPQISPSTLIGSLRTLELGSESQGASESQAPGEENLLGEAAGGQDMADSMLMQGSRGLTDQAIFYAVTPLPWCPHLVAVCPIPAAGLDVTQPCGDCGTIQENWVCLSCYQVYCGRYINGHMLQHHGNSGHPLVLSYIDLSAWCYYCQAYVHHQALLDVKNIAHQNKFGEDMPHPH

HDAC2 = molecular target: T4, HDAC2 (Homo sapiens, UniProt Q92769); type: biochemical; conditions: HDAC isoform 2; 2 μM FAM-labeled acetylated peptide substrate, 60 min, room temperature
T4 construct: purchased BPS Bioscience
T4 sequence (Q92769 whole entry, canonical isoform): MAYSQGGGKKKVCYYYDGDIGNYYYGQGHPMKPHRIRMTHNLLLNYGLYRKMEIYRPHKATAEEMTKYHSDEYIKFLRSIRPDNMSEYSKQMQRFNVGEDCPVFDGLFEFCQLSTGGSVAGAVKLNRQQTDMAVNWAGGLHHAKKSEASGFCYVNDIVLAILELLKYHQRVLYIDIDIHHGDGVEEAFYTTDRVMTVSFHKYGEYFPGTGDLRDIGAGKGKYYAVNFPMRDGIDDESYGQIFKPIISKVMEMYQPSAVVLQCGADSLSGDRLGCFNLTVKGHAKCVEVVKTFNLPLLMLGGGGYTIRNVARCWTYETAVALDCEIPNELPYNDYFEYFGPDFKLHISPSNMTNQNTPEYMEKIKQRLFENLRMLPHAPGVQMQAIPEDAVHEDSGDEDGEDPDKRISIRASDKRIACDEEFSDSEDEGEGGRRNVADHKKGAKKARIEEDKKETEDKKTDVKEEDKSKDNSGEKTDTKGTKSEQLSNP

HDAC8 = molecular target: T5, HDAC8 (Homo sapiens, UniProt Q9BY41); type: biochemical; conditions: HDAC isoform 8; 2 μM FAM-labeled acetylated peptide substrate, 60 min, room temperature
T5 construct: purchased BPS Bioscience
T5 sequence (Q9BY41 1-377): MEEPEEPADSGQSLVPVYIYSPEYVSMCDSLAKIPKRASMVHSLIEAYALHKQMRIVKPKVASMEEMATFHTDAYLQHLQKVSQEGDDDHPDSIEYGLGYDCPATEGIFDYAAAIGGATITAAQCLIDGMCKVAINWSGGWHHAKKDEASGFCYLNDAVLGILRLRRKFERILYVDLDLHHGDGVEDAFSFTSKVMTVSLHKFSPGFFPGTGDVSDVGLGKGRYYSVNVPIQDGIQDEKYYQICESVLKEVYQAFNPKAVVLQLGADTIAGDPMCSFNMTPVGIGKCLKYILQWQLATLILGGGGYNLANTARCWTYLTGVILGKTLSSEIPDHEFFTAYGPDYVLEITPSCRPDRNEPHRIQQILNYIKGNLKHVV

HDAC9 = molecular target: T6, HDAC9 (Homo sapiens, UniProt Q9UKV0); type: biochemical; conditions: HDAC isoform 9; 2 μM FAM-labeled acetylated peptide substrate, 60 min, room temperature
T6 construct: purchased BPS Bioscience
T6 sequence (Q9UKV0 whole entry, canonical isoform): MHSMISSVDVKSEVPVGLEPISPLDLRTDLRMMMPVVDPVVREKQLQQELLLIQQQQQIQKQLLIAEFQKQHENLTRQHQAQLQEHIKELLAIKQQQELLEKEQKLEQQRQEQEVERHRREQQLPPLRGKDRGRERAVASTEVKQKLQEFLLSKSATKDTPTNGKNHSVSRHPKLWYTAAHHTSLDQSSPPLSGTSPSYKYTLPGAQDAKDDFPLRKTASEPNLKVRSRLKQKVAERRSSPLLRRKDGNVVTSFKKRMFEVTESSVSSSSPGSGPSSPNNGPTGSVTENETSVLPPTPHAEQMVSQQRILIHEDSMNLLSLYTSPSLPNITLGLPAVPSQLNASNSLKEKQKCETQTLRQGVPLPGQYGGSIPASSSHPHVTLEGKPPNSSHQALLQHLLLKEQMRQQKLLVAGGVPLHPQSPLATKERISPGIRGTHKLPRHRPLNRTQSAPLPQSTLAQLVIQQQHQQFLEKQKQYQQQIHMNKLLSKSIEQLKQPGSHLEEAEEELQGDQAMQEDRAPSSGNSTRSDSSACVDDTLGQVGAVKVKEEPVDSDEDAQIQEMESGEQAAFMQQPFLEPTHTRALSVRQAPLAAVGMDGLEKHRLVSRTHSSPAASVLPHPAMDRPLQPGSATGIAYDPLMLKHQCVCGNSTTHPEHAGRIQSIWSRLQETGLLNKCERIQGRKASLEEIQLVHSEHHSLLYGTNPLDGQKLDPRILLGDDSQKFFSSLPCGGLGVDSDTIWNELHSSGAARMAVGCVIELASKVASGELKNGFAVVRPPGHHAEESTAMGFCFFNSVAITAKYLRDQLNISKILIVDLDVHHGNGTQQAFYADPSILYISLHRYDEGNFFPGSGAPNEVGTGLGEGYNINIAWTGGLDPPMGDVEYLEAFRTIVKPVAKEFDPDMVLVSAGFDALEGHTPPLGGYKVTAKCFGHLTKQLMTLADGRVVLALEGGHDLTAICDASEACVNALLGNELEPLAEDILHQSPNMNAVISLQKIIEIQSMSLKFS

HDAC3 = molecular target: T7, HDAC3 (Homo sapiens, UniProt O15379); type: biochemical; conditions: HDAC isoform 3; 2 μM FAM-labeled acetylated peptide substrate, 60 min, room temperature
T7 construct: purchased BPS Bioscience
T7 sequence (O15379 whole entry, canonical isoform): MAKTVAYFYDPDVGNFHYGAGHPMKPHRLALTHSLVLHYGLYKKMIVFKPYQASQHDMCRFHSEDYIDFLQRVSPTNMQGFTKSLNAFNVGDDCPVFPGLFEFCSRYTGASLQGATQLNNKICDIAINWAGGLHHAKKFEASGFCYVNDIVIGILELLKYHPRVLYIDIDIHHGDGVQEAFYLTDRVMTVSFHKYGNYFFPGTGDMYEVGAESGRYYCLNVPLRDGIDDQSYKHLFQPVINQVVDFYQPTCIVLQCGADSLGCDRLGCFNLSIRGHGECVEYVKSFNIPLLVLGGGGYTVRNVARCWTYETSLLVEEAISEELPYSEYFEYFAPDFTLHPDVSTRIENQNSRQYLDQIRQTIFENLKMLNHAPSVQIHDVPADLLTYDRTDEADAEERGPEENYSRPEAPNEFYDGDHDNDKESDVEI
T7 sequence (Q9Y618 395-489 partner limits assumed): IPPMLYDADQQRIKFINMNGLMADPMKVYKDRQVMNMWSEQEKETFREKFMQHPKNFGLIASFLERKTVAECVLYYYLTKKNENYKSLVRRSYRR

HDAC5 = molecular target: T8, HDAC5 (Homo sapiens, UniProt Q9UQL6); type: biochemical; conditions: HDAC isoform 5; 2 μM FAM-labeled acetylated peptide substrate, 60 min, room temperature
T8 construct: purchased BPS Bioscience
T8 sequence (Q9UQL6 whole entry, canonical isoform): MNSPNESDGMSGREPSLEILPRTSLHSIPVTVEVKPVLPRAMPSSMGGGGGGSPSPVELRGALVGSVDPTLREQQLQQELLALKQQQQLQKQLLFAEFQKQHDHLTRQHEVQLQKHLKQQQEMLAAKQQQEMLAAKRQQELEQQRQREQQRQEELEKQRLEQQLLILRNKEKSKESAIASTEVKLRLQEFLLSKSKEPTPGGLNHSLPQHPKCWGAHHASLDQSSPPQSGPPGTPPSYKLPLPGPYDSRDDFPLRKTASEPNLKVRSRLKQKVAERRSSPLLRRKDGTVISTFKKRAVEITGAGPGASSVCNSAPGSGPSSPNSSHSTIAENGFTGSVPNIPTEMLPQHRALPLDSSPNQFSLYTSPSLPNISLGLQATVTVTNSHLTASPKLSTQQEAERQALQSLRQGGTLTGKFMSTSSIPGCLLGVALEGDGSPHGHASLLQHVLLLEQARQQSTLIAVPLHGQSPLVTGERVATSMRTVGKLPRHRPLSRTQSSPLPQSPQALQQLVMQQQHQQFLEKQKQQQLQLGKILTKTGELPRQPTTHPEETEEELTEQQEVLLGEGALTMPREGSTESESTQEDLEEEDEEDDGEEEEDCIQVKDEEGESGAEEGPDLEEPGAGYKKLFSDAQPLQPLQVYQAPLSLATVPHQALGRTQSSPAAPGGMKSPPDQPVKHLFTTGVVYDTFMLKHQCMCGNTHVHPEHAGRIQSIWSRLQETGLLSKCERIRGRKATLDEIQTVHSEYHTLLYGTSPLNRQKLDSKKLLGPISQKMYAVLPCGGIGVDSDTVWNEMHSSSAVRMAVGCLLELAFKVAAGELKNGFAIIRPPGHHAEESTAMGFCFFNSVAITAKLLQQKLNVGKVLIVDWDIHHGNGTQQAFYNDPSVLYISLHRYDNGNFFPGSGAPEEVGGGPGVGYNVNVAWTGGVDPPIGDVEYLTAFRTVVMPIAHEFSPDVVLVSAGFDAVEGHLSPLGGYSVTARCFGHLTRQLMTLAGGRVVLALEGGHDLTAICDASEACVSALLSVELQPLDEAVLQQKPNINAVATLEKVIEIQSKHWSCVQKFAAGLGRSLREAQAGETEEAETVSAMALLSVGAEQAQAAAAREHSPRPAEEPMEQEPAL

Compound	IC50 (HDAC1) [µM]	IC50 (HDAC7) [µM]	IC50 (HDAC4) [µM]	IC50 (HDAC6) [µM]	IC50 (HDAC2) [µM]	IC50 (HDAC8) [µM]	IC50 (HDAC9) [µM]	IC50 (HDAC3) [µM]	IC50 (HDAC5) [µM]
O=C(NO)C1=CCOCC1 [Compound 20A, N-Hydroxy-3,6-Dihydro-2H-Pyran-4-Carboxamide]	1.08	26.8	> 33	0.016	1.9	1.38	> 33	1.4	
Cc1ccc(S(=O)(=O)N2CC=C(C(=O)NO)CC2)cc1 [Compound 31A, N-Hydroxy-1-Tosyl-1,2,3,6-Tetrahydropyridine-4-Carboxamide]	0.084	11.6	14.8	0.014	0.375	0.494	13	0.099	7.41
COc1ccc(CNC2C=C(C(=O)NO)CCC2)cc1 (stereo not shown) [Compound 7A, N-Hydroxy-3-((4-Methoxybenzyl)Amino)Cyclohex-1-Enecarboxamide]	> 33	> 33	> 33	2.68	> 33	2.16	> 33	> 33	> 33
O=C(NO)C1=CCCC1 [Compound 21A, N-Hydroxycyclopent-1-Enecarboxamide]	0.727		29.7	0.024	3.44	1.85	> 33	0.734	21.1
O=C(NO)C1=Cc2ccccc2CC1 [Compound 32A, N-Hydroxy-3,4-Dihydronaphthalene-2-Carboxamide]	1.86	2.46	4.65	0.014	2.6	0.626	4.08	2.32	14
COc1ccc(C(=O)N2CCC=C(C(=O)NO)C2)cc1 [Compound 12A]	> 33	> 33	> 33	6.2	> 33	23.2	> 33	> 33	> 33
CC1=C(C(=O)NO)Cc2ccccc21 [Compound 29A, N-Hydroxy-3-Methyl-1H-Indene-2-Carboxamide]	0.275	17.9	16	0.049	0.584	1.13	11.2	0.713	23.6
O=C(NO)C1=C[C@@H](O)[C@@H](O)[C@H](O)C1 [Compound 22A, (3R,4S,5R)-N,3,4,5-Tetrahydroxycyclohex-1-Enecarboxamide]	> 33	> 33	> 33	> 33	> 33	9.14	> 33	> 33	> 33
O=C(NO)C1=CCCCC1 [Compound 19A, N-Hydroxycyclohex-1-Enecarboxamide]	0.423	2.32	10.1	0.011	1.4	0.523	11.7	0.493	15.2
CN1CCC=C(C(=O)NO)C1 [Compound 30A, N-Hydroxy-1-Methyl-1,2,5,6-Tetrahydropyridine-3-Carboxamide]	> 33	> 33	> 33	> 33	> 33	2.63	> 33	> 33	> 33
O=C(NO)C1=CC(Sc2ccccc2)CCC1 (stereo not shown) [Compound 10A, N-Hydroxy-3-(Phenylthio)Cyclohex-1-Enecarboxamide]	2.1	6.91	7.93	0.106	1.7	0.055	16	3.22	10.9
